Test results as given in ChEMBL document CHEMBL3044990, “Synthesis and Insecticidal Activity of 5-Dimethylamino-1, 3dithianes” (1991).
Values after ≈ are worked out from the molar mass of the structure shown.

Experiments:
Format in all cases: functional
[1] = system: Henosepilachna vigintioctopunctata; experiment: Insecticidal activity against third-instar larvae of Henosepilachna vigintioctopunctata assessed as mortality after 2 days; conditions: 48 h
Tetranychus urticae = experiment: Insecticidal activity against Tetranychus urticae (two-spotted spider mite) in kidney bean plant leaf assessed as mortality at 500 ppm after 2 days; conditions: 48 h
Laodelphax striatellus = experiment: Insecticidal activity against 3rd instar larva of Laodelphax striatella (small brown planthopper) assessed as mortality at 50 ppm after 6 days; conditions: 144 h
Chilo suppressalis = experiment: Insecticidal activity against 5th instar larva of Chilo suppressalis assessed as mortality at 50 ug/g after 48 hr
Spodoptera litura = experiment: Insecticidal activity against third-instar larvae of Spodoptera litura in soybean seedlings assessed as mortality at 500 ppm after 48 hr

Cc1ccc(C)c(C2(C#N)SCC(N(C)C)CS2)c1 (centres undefined)
LC50 [1]: 25 µg/mL (≈ 85.5 µM) | mortality at 500 ppm (Tetranychus urticae): 100% | mortality at 50 ppm (Laodelphax striatellus): 15% | mortality (Chilo suppressalis): 100%

CCCCCCCCCCNC(=O)C1(C#N)SCC(N(C)C)CS1 (centres undefined)
LC50 [1]: 20 µg/mL (≈ 53.8 µM) | mortality at 500 ppm (Spodoptera litura): 50% | mortality at 500 ppm (Tetranychus urticae): 90% | mortality at 50 ppm (Laodelphax striatellus): 85% | mortality (Chilo suppressalis): 100%

CN(C)C1CSC(C#N)(C(=O)N2CCCC2)SC1 (centres undefined)
LC50 [1]: 10 µg/mL (≈ 35 µM) | mortality at 500 ppm (Spodoptera litura): 20% | mortality at 500 ppm (Tetranychus urticae): 100% | mortality at 50 ppm (Laodelphax striatellus): 25% | mortality (Chilo suppressalis): 100%

CCCCCCCCCCCCCCNC(=O)C1(C#N)SCC(N(C)C)CS1 (centres undefined)
LC50 [1]: 33 µg/mL (≈ 77.2 µM) | mortality at 500 ppm (Spodoptera litura): 70% | mortality at 500 ppm (Tetranychus urticae): 70% | mortality at 50 ppm (Laodelphax striatellus): 25% | mortality (Chilo suppressalis): 100%

Cc1ccccc1C1(C#N)SCC(N(C)C)CS1 (centres undefined)
LC50 [1]: 100 µg/mL (≈ 359 µM) | mortality at 500 ppm (Tetranychus urticae): 60% | mortality at 50 ppm (Laodelphax striatellus): 20% | mortality (Chilo suppressalis): 100%

CCNC(=O)C1(C#N)SCC(N(C)C)CS1 (centres undefined)
LC50 [1]: 6 µg/mL (≈ 23.1 µM) | mortality at 500 ppm (Spodoptera litura): 80% | mortality at 500 ppm (Tetranychus urticae): 90% | mortality at 50 ppm (Laodelphax striatellus): 20% | mortality (Chilo suppressalis): 100%

CCCCCCCCNC(=O)C1(C#N)SCC(N(C)C)CS1 (centres undefined)
LC50 [1]: 23 µg/mL (≈ 66.9 µM) | mortality at 500 ppm (Spodoptera litura): 80% | mortality at 500 ppm (Tetranychus urticae): 100% | mortality at 50 ppm (Laodelphax striatellus): 80% | mortality (Chilo suppressalis): 100%

CN(C)C1CSC(C#N)(c2cccc([N+](=O)[O-])c2)SC1 (centres undefined)
LC50 [1]: 15 µg/mL (≈ 48.5 µM) | mortality at 500 ppm (Tetranychus urticae): 100% | mortality at 50 ppm (Laodelphax striatellus): 70% | mortality (Chilo suppressalis): 100%

CC(C)NC(=O)C1(C#N)SCC(N(C)C)CS1 (centres undefined)
LC50 [1]: 40 µg/mL (≈ 146 µM) | mortality at 500 ppm (Spodoptera litura): 40% | mortality at 500 ppm (Tetranychus urticae): 100% | mortality at 50 ppm (Laodelphax striatellus): 20% | mortality (Chilo suppressalis): 100%

CN(C)C1CSC(C#N)(c2cccc(C(F)(F)F)c2)SC1 (centres undefined)
LC50 [1]: 18 µg/mL (≈ 54.1 µM) | mortality at 500 ppm (Tetranychus urticae): 100% | mortality at 50 ppm (Laodelphax striatellus): 95% | mortality (Chilo suppressalis): 100%

CCN(CC)C(=O)C1(C#N)SCC(N(C)C)CS1 (centres undefined)
LC50 [1]: 15 µg/mL (≈ 52.2 µM) | mortality at 500 ppm (Spodoptera litura): 80% | mortality at 500 ppm (Tetranychus urticae): 80% | mortality at 50 ppm (Laodelphax striatellus): 24% | mortality (Chilo suppressalis): 100%

CN(C)C1CSC(C#N)(c2ccc(Cl)cc2)SC1 (centres undefined)
LC50 [1]: 120 µg/mL (≈ 402 µM) | mortality at 500 ppm (Tetranychus urticae): 100% | mortality at 50 ppm (Laodelphax striatellus): 75% | mortality (Chilo suppressalis): 100%

CN(C)C1CSC(C#N)(c2cc(Cl)cc(Cl)c2)SC1 (centres undefined)
LC50 [1]: 133 µg/mL (≈ 399 µM) | mortality at 500 ppm (Tetranychus urticae): 100% | mortality at 50 ppm (Laodelphax striatellus): 55% | mortality (Chilo suppressalis): 100%

CN(C)C1CSC(C#N)(c2ccccc2F)SC1 (centres undefined)
LC50 [1]: 15 µg/mL (≈ 53.1 µM) | mortality at 500 ppm (Tetranychus urticae): 100% | mortality at 50 ppm (Laodelphax striatellus): 55% | mortality (Chilo suppressalis): 100%

CC(C)N(C(=O)C1(C#N)SCC(N(C)C)CS1)C(C)C (centres undefined)
LC50 [1]: 16 µg/mL (≈ 50.7 µM) | mortality at 500 ppm (Spodoptera litura): 60% | mortality at 500 ppm (Tetranychus urticae): 100% | mortality at 50 ppm (Laodelphax striatellus): 26% | mortality (Chilo suppressalis): 100%

CN(C)C1CSC(C#N)(c2ccc(Cl)c(Cl)c2)SC1 (centres undefined)
LC50 [1]: 12 µg/mL (≈ 36 µM) | mortality at 500 ppm (Tetranychus urticae): 50% | mortality at 50 ppm (Laodelphax striatellus): 40% | mortality (Chilo suppressalis): 100%

CN(C)C1CSC(C#N)(c2ccccc2[N+](=O)[O-])SC1 (centres undefined)
LC50 [1]: 19 µg/mL (≈ 61.4 µM) | mortality at 500 ppm (Tetranychus urticae): 70% | mortality at 50 ppm (Laodelphax striatellus): 85% | mortality (Chilo suppressalis): 100%

COc1ccc(C2(C#N)SCC(N(C)C)CS2)cc1 (centres undefined)
LC50 [1]: 35 µg/mL (≈ 119 µM) | mortality at 500 ppm (Tetranychus urticae): 100% | mortality at 50 ppm (Laodelphax striatellus): 20% | mortality (Chilo suppressalis): 100%

Cc1ccc(C2(C#N)SCC(N(C)C)CS2)cc1 (centres undefined)
LC50 [1]: 25 µg/mL (≈ 89.8 µM) | mortality at 500 ppm (Tetranychus urticae): 100% | mortality at 50 ppm (Laodelphax striatellus): 85% | mortality (Chilo suppressalis): 100%

CN(C)C1CSC(C#N)(c2cccc(Cl)c2)SC1 (centres undefined)
LC50 [1]: 10 µg/mL (≈ 33.5 µM) | mortality at 500 ppm (Tetranychus urticae): 80% | mortality at 50 ppm (Laodelphax striatellus): 85% | mortality (Chilo suppressalis): 100%

CN(C)C1CSC(C#N)(C(=O)NC2CCCCC2)SC1 (centres undefined)
LC50 [1]: 25 µg/mL (≈ 79.7 µM) | mortality at 500 ppm (Spodoptera litura): 50% | mortality at 500 ppm (Tetranychus urticae): 80% | mortality at 50 ppm (Laodelphax striatellus): 40% | mortality (Chilo suppressalis): 100%

CCC(C)NC(=O)C1(C#N)SCC(N(C)C)CS1 (centres undefined)
LC50 [1]: 33 µg/mL (≈ 115 µM) | mortality at 500 ppm (Spodoptera litura): 80% | mortality at 500 ppm (Tetranychus urticae): 100% | mortality at 50 ppm (Laodelphax striatellus): 25% | mortality (Chilo suppressalis): 100%

COc1ccccc1C1(C#N)SCC(N(C)C)CS1 (centres undefined)
LC50 [1]: 30 µg/mL (≈ 102 µM) | mortality at 500 ppm (Tetranychus urticae): 100% | mortality at 50 ppm (Laodelphax striatellus): 20% | mortality (Chilo suppressalis): 100%

CCCCCCNC(=O)C1(C#N)SCC(N(C)C)CS1 (centres undefined)
LC50 [1]: 10 µg/mL (≈ 31.7 µM) | mortality at 500 ppm (Spodoptera litura): 70% | mortality at 500 ppm (Tetranychus urticae): 100% | mortality at 50 ppm (Laodelphax striatellus): 65% | mortality (Chilo suppressalis): 100%

CNC(=O)C1(C#N)SCC(N(C)C)CS1 (centres undefined)
LC50 [1]: 25 µg/mL (≈ 102 µM) | mortality at 500 ppm (Spodoptera litura): 90% | mortality at 500 ppm (Tetranychus urticae): 100% | mortality at 50 ppm (Laodelphax striatellus): 50% | mortality (Chilo suppressalis): 100%

CN(C)C1CSC(C#N)(C(=O)NC(C)(C)C)SC1 (centres undefined)
LC50 [1]: 20 µg/mL (≈ 69.6 µM) | mortality at 500 ppm (Spodoptera litura): 80% | mortality at 500 ppm (Tetranychus urticae): 100% | mortality at 50 ppm (Laodelphax striatellus): 45% | mortality (Chilo suppressalis): 100%

CN(C)C1CSC(C#N)(C(=O)NC2CC2)SC1 (centres undefined)
LC50 [1]: 8 µg/mL (≈ 29.5 µM) | mortality at 500 ppm (Spodoptera litura): 50% | mortality at 500 ppm (Tetranychus urticae): 40% | mortality at 50 ppm (Laodelphax striatellus): 25% | mortality (Chilo suppressalis): 100%

CN(C)C1CSC(C#N)(C(N)=O)SC1 (centres undefined)
LC50 [1]: 30 µg/mL (≈ 130 µM) | mortality at 500 ppm (Spodoptera litura): 100% | mortality at 500 ppm (Tetranychus urticae): 100% | mortality at 50 ppm (Laodelphax striatellus): 35% | mortality (Chilo suppressalis): 100%

CN(C)C1CSC(C#N)(c2ccccc2Cl)SC1 (centres undefined)
LC50 [1]: 15 µg/mL (≈ 50.2 µM) | mortality at 500 ppm (Tetranychus urticae): 100% | mortality at 50 ppm (Laodelphax striatellus): 95% | mortality (Chilo suppressalis): 100%

CN(C)C1CSC(C#N)(c2cccc(Br)c2)SC1 (centres undefined)
LC50 [1]: 15 µg/mL (≈ 43.7 µM) | mortality at 500 ppm (Tetranychus urticae): 100% | mortality at 50 ppm (Laodelphax striatellus): 70% | mortality (Chilo suppressalis): 100%

CN(C)C1CSC(C#N)(c2ccc(N)cc2)SC1 (centres undefined)
LC50 [1]: 25 µg/mL (≈ 89.5 µM) | mortality at 500 ppm (Tetranychus urticae): 100% | mortality at 50 ppm (Laodelphax striatellus): 45% | mortality (Chilo suppressalis): 100%

CCCCNC(=O)C1(C#N)SCC(N(C)C)CS1 (centres undefined)
LC50 [1]: 40 µg/mL (≈ 139 µM) | mortality at 500 ppm (Spodoptera litura): 80% | mortality at 500 ppm (Tetranychus urticae): 100% | mortality at 50 ppm (Laodelphax striatellus): 20% | mortality (Chilo suppressalis): 100%

CN(C)C1CSC(C#N)(c2ccccc2)SC1 (centres undefined)
LC50 [1]: 200 µg/mL (≈ 756 µM) | mortality at 500 ppm (Tetranychus urticae): 10% | mortality at 50 ppm (Laodelphax striatellus): 15% | mortality (Chilo suppressalis): 100%

CN(C)C1CSC(C#N)(c2cc(F)ccc2F)SC1 (centres undefined)
LC50 [1]: 30 µg/mL (≈ 99.9 µM) | mortality at 500 ppm (Tetranychus urticae): 100% | mortality at 50 ppm (Laodelphax striatellus): 30% | mortality (Chilo suppressalis): 100%

CN(C)C1CSC(C#N)(c2c(Cl)cccc2Cl)SC1 (centres undefined)
LC50 [1]: 15 µg/mL (≈ 45 µM) | mortality at 500 ppm (Tetranychus urticae): 80% | mortality at 50 ppm (Laodelphax striatellus): 99% | mortality (Chilo suppressalis): 100%

CN(C)C1CSC(C#N)(c2ccc(F)cc2)SC1 (centres undefined)
LC50 [1]: 130 µg/mL (≈ 460 µM) | mortality at 500 ppm (Tetranychus urticae): 100% | mortality at 50 ppm (Laodelphax striatellus): 15% | mortality (Chilo suppressalis): 100%

CN(C)C1CSC(C#N)(c2ccccc2Br)SC1 (centres undefined)
LC50 [1]: 10 µg/mL (≈ 29.1 µM) | mortality at 500 ppm (Tetranychus urticae): 100% | mortality at 50 ppm (Laodelphax striatellus): 85% | mortality (Chilo suppressalis): 100%

CN(C)C1CSC(C#N)(c2ccc([N+](=O)[O-])cc2)SC1 (centres undefined)
LC50 [1]: 18 µg/mL (≈ 58.2 µM) | mortality at 500 ppm (Tetranychus urticae): 60% | mortality at 50 ppm (Laodelphax striatellus): 95% | mortality (Chilo suppressalis): 100%

CN(C)C1CSC(C#N)(c2cccc(F)c2)SC1 (centres undefined)
LC50 [1]: 18 µg/mL (≈ 63.7 µM) | mortality at 500 ppm (Tetranychus urticae): 100% | mortality at 50 ppm (Laodelphax striatellus): 85% | mortality (Chilo suppressalis): 100%

CN(C)C1CSC(C#N)(c2ccc(Br)cc2)SC1 (centres undefined)
LC50 [1]: 25 µg/mL (≈ 72.8 µM) | mortality at 500 ppm (Tetranychus urticae): 100% | mortality at 50 ppm (Laodelphax striatellus): 100% | mortality (Chilo suppressalis): 100%

CN(C)C1CSSC1 [NEREISTOXIN]
mortality at 500 ppm (Spodoptera litura): 90% | mortality at 500 ppm (Tetranychus urticae): 50% | mortality at 50 ppm (Laodelphax striatellus): 80% | mortality (Chilo suppressalis): 100%

Cc1cccc(C2(C#N)SCC(N(C)C)CS2)c1 (centres undefined)
LC50 [1]: 120 µg/mL (≈ 431 µM) | mortality at 500 ppm (Tetranychus urticae): 80% | mortality at 50 ppm (Laodelphax striatellus): 30% | mortality (Chilo suppressalis): 100%
